Experimental findings from US8426437B2, “Pyrroloquinoline derivatives and their use as protein kinases inhibitors” (Pierre Fabre Medicament, priority 2005, dated 2013) are described below.

Common to all, as to format: biochemical
One assay deals with T1, RET (Homo sapiens, UniProt P07949).
T1 construct: purchased Upstate 14-570MG
The assay can be described thus: Inhibition of RET kinase activity, recombinant RET method (Kinase-Glo). Conditions: RET 2 μg/ml, poly-EY4 substrate, 20 μM ATP, two hours at 30° C. In short, it runs like this:
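Recombinant RET at 2 μg/ml in 20 mM MOPS/NaOH pH 7.0, 1 mM EDTA, 5% glycerol, 0.01% Brij35, 0.1% 2-mercaptoethanol, 1 mg/ml BSA; compounds 10 nM–30 μM final.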

A further assay has as its target T2, PIM-1 (Homo sapiens, UniProt P11309).
T2 construct: purchased Upstate 14-573
The assay can be described thus: Inhibition of kinase PIM-1 (Kinase-Glo). Conditions: PIM-1 0.625 μg/ml, 10 μM ATP, forty minutes at 30° C. The procedure: Protein PIM-1 (Upstate #14-573 batch 25864U) is incubated at a concentration of 0.625 μg/ml in a buffer containing 8 mM of MOPS/NaOH pH7, 0.2 mM EDTA, 5 mM MgAc (Sigma #229768), 0.01% Triton Tx100, in the presence of 70 μM of peptide substrate S6 Kinase/Rsk2 (Upstate #12-243), and 10 μM of ATP.
The dilution buffer for PIM-1 is as follows: 20 mM MOPS/NaOH pH7, 1 mM EDTA, 5% glycerol, 0.01% Brij35, 0.1% 2-mercapto, 1 mg/ml BSA
(§1) The compound to be tested is first added to the enzyme to give a reaction volume of 50 μl. The dilution of the compounds of the invention is distributed so as to obtain a scale of final concentrations between 10 nM and 30 μM.
After incubation of the reaction mixture for forty minutes at 30° C., the level of ATP that remains is assayed using the Kinase-Glo Luminescent Kinase Assay (Promega #V6712) according to the conditions recommended by the supplier. The luminescence induced is read in a plate reader (Envision-Perkin Elmer).
A general note: Kinase-Glo reads ATP consumption through a luciferase reaction.

The target in the next assay is T3, TrkA (Homo sapiens, UniProt P04629).
T3 construct: purchased Upstate 14-571
T3 sequence (P04629 33-796): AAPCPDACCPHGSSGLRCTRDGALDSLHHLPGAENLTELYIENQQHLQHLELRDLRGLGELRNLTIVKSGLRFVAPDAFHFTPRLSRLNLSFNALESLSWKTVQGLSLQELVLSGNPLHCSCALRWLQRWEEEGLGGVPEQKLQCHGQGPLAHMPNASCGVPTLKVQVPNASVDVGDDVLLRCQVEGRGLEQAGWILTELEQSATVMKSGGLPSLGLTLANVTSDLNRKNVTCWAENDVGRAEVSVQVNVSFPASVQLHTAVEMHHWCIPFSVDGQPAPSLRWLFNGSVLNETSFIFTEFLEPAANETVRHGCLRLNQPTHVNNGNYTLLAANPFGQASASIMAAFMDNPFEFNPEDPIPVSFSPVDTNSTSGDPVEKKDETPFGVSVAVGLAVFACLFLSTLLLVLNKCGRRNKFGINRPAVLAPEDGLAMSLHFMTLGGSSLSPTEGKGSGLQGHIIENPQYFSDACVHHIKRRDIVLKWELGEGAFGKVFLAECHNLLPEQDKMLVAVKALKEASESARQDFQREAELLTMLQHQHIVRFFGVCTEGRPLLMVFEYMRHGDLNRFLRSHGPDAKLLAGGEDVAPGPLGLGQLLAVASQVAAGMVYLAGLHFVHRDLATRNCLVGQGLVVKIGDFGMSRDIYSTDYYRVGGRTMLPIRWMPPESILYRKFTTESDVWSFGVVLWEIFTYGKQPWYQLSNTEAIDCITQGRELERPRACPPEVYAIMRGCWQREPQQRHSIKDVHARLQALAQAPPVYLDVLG
The assay can be described thus: Inhibition of kinase TrkA (Kinase-Glo). Conditions: TrkA 4 μg/ml, 30 μM ATP, two hours at 30° C. The procedure: Protein TrkA (Upstate 14-571; batch #25634U) is incubated at a concentration of 4 μg/ml in a buffer containing 8 mM of MOPS/NaOH pH7, 0.2 mM EDTA, 40 mM MgAc (Sigma #229768), 1 mM DTT (Fluka #43816), NaOV 1 mM, 0.01% Triton Tx100, in the presence of 1 mg/ml of peptide substrate poly-EY (Upstate #P0275), and 30 μM of ATP.
The dilution buffer for TrkA is as follows: 20 mM MOPS/NaOH pH7, 1 mM EDTA, 5% glycerol, 0.01% Brij35, 0.1% 2-mercapto, 1 mg/ml BSA.
as §1
(§2) After incubation of the reaction mixture for two hours at 30° C., the level of ATP that remains is assayed using the Kinase-Glo Luminescent Kinase Assay (Promega #V6712) according to the conditions recommended by the supplier. The luminescence induced is read in a plate reader (Envision-Perkin Elmer).

For another assay, the target named is T4, TrkB (Homo sapiens, UniProt Q16620).
T4 construct: purchased Upstate 14-507
T4 sequence (Q16620 32-822): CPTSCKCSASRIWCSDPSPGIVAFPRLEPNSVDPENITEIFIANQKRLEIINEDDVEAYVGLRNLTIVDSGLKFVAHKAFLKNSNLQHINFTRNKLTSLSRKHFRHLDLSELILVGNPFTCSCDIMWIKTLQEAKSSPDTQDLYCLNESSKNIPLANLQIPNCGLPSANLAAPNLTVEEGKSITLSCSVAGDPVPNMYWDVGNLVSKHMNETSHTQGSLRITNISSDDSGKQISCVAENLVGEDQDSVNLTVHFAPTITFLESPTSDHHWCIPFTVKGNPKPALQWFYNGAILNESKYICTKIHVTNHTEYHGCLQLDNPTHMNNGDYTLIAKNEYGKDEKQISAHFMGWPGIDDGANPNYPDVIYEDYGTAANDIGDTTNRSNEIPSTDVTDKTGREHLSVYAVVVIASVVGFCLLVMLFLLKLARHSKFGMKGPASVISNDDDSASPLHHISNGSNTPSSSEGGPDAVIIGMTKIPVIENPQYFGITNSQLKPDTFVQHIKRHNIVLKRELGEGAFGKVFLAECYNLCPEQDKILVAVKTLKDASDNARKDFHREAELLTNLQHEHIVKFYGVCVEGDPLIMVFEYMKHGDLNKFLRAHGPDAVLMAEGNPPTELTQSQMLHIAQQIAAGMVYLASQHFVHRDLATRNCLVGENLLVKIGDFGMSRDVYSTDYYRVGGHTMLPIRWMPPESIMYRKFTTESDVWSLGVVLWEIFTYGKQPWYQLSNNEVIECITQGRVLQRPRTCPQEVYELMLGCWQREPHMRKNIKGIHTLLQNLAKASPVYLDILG
The assay can be described thus: Inhibition of kinase TrkB (Kinase-Glo). Conditions: TrkB 4 μg/ml, 40 μM ATP, two hours at 30° C. The procedure:
Protein TrkB (Upstate 14-507; batch #25578U) is incubated at a concentration of 4 μg/ml in a buffer containing 8 mM of MOPS/NaOH pH7, 0.2 mM EDTA, 40 mM MgAc (Sigma #229768), 1 mM DTT (Fluka #43816), NaOV 1 mM, 25 mM 2-glycerolphosphate (Sigma #G9891), in the presence of 2.5 mg/ml of peptide substrate poly-EY (Upstate #P0275), and 40 μM of ATP.
The dilution buffer for TrkB is as follows: 20 mM MOPS/NaOH pH7, 1 mM EDTA, 5% glycerol, 0.01% Brij35, 0.1% 2-mercapto, 1 mg/ml BSA.
as §1, §2

Where a name gives a salt, the structure may show the parent alone.

T2 sequence (P11309 whole entry): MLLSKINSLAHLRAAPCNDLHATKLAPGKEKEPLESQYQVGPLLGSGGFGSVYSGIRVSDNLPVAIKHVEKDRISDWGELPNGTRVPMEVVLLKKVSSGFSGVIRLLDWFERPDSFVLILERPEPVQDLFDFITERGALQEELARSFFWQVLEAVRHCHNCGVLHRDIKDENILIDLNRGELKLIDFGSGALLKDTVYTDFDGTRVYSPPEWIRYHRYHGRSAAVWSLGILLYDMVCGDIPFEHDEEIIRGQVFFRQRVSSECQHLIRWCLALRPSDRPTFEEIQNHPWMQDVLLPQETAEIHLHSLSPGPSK
T1 sequence (P07949 29-1114): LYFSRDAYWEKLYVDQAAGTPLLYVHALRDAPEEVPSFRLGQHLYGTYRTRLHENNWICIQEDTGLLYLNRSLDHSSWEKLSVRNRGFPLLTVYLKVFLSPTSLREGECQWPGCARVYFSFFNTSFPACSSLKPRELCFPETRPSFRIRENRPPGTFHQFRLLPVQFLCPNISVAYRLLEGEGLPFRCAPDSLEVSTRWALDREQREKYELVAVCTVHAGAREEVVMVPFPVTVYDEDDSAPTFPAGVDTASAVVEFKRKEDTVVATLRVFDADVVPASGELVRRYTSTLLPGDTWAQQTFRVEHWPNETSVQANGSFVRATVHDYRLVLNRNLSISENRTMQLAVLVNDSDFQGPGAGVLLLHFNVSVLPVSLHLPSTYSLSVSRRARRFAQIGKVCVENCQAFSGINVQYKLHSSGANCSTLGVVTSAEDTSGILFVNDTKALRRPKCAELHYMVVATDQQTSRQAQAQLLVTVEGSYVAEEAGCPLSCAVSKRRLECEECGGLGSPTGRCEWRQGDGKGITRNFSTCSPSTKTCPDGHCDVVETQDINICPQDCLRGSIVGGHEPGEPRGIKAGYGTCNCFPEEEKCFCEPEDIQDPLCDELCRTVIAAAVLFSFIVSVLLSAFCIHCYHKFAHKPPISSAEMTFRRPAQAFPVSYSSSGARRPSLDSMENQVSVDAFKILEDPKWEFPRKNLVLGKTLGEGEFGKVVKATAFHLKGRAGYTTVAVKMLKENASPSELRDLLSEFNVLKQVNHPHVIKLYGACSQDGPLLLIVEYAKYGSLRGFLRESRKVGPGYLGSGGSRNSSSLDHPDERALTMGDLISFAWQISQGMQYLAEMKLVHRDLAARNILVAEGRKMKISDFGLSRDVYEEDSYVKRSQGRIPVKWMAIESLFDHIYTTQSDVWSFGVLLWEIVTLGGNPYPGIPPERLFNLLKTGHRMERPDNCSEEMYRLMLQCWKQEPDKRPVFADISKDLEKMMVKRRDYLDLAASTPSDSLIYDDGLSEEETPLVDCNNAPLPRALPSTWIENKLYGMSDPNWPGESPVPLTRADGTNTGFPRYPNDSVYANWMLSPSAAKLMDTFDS

The IC50 is the concentration that gives 50% inhibition. For the compound `CCOC(=O)c1c[nH]c2c(=O)[nH]c3ccc(S(=O)(=O)N(C)c4ccccc4)cc3c12` [Compound 3, 8-(Methyl-phenylsulfamoyl)-4-oxo-4,5-dihydro-3H-pyrrolo[2,3-c]quinoline-1-ethyl carboxylate], the IC50 is less than 0.1 µM on RET, 10 to 100 µM against PIM-1, 1 to 10 µM against TrkA and 10 to 100 µM on TrkB.
For the compound `CCOC(=O)c1c[nH]c2c(=O)[nH]c3ccc(NS(=O)(=O)c4ccccc4)cc3c12` [Compound 37, 8-Benzenesulfonylamino-4-oxo-4,5-dihydro-3H-pyrrolo[2,3-c]quinoline-1-ethyl carboxylate], the IC50 fell in the range of 0.1 to 1 µM at RET, 10 to 100 µM at PIM-1, 1 to 10 µM against TrkA and 1 to 10 µM against TrkB.
As to `CCOC(=O)c1c[nH]c2c(=O)[nH]c3ccc(NS(=O)(=O)c4cccc(F)c4)cc3c12` [Compound 44, 8-(3-Fluoro-benzenesulfonylamino)-4-oxo-4,5-dihydro-3H-pyrrolo[2,3-c]quinoline-1-ethyl carboxylate], the IC50 at RET is 0.1 to 1 µM; on TrkA, 1 to 10 µM; against TrkB it was 1 to 10 µM.
In the case of `CCOC(=O)c1c[nH]c2c(=O)[nH]c3ccc(NS(=O)(=O)c4ccccc4F)cc3c12` [Compound 45, 8-(2-Fluoro-benzenesulfonylamino)-4-oxo-4,5-dihydro-3H-pyrrolo[2,3-c]quinoline-1-ethyl carboxylate], the IC50 on RET, on TrkA and on TrkB was 1 to 10 µM throughout.
Regarding `CCOC(=O)c1c[nH]c2c(=O)[nH]c3ccc(NS(=O)(=O)c4ccc(C(C)(C)C)cc4)cc3c12` [Compound 49, 8-(4-tert-Butyl-benzenesulfonylamino)-4-oxo-4,5-dihydro-3H-pyrrolo[2,3-c]quinoline-1-ethyl carboxylate], the results for the IC50 at RET, at TrkA and on TrkB were 10 to 100 µM, 10 to 100 µM and 1 to 10 µM, respectively.
For `CCOC(=O)c1c[nH]c2c(=O)[nH]c3ccc(NS(=O)(=O)c4cccs4)cc3c12` [Compound 56, 4-Oxo-8-(thiophene-2-sulfonylamino)-4,5-dihydro-3H-pyrrolo[2,3-c]quinoline-1-ethyl carboxylate], the results for the IC50 at RET, against TrkA and against TrkB were 0.1 to 1 µM, 1 to 10 µM and 1 to 10 µM, respectively.
`CCOC(=O)c1c[nH]c2c(=O)[nH]c3ccc(N(C)S(=O)(=O)c4ccccc4)cc3c12` [Compound 58, 8-(Benzenesulfonyl-methyl-amino)-4-oxo-4,5-dihydro-3H-pyrrolo[2,3-c]quinoline-1-ethyl carboxylate]: the IC50 on RET fell in the range of 0.1 to 1 µM; at TrkA it was 1 to 10 µM; against TrkB, 1 to 10 µM.
`COC(=O)c1c[nH]c2c(=O)[nH]c3ccc(S(=O)(=O)NC4CCCCC4)cc3c12` [Compound 111, 8-Cyclohexylsulfamoyl-4-oxo-4,5-dihydro-3H-pyrrolo[2,3-c]quinoline-1-methyl carboxylate]: the IC50 at RET, on TrkA and against TrkB was 1 to 10 µM in each case.
With `CCCOC(=O)c1c[nH]c2c(=O)[nH]c3ccc(S(=O)(=O)NC4CCNCC4)cc3c12` [Compound 114, 4-Oxo-8-(piperidin-4-ylsulfamoyl)-4,5-dihydro-3H-pyrrolo[2,3-c]quinoline-1-propyl carboxylate], the IC50 was less than 0.1 µM at RET, 1 to 10 µM on PIM-1, 10 to 100 µM at TrkA and 10 to 100 µM on TrkB.
`CCCCOC(=O)c1c[nH]c2c(=O)[nH]c3ccc(S(=O)(=O)NC4CCNCC4)cc3c12` [Compound 115, 4-Oxo-8-(piperidin-4-ylsulfamoyl)-4,5-dihydro-3H-pyrrolo[2,3-c]quinoline-1-carboxylate of butyl]: the IC50 is less than 0.1 µM on RET, 1 to 10 µM at PIM-1, 10 to 100 µM on TrkA and 10 to 100 µM against TrkB.
Consider `O=C(OCC1CCCCC1)c1c[nH]c2c(=O)[nH]c3ccc(S(=O)(=O)NC4CCNCC4)cc3c12` [Compound 117], for which the IC50 on RET is 0.1 to 1 µM; against PIM-1, 1 to 10 µM; at TrkA, 10 to 100 µM; at TrkB, 10 to 100 µM.
Take `CCCOC(=O)c1c[nH]c2c(=O)[nH]c3ccc(S(=O)(=O)N(C)C4CCNCC4)cc3c12` [Compound 120, 8-(Methyl-piperidin-4-yl-sulfamoyl)-4-oxo-4,5-dihydro-3H-pyrrolo[2,3-c]quinoline-1-propyl carboxylate]: the IC50 on RET is less than 0.1 µM; on PIM-1 it was 10 to 100 µM; against TrkA, 1 to 10 µM; against TrkB, 10 to 100 µM.
On to `CCOC(=O)c1c[nH]c2c(=O)[nH]c3ccc(S(=O)(=O)N(CCC#N)C4CC4)cc3c12` [Compound 127, 8-[(2-Cyano-ethyl)-cyclopropyl-sulfamoyl]-4-oxo-4,5-dihydro-3H-pyrrolo[2,3-c]quinoline-1-ethyl carboxylate], for which the half-inhibitory concentration (IC50) was less than 0.1 µM on RET, 10 to 100 µM at PIM-1, 1 to 10 µM on TrkA and 1 to 10 µM against TrkB.
As for `CCOC(=O)c1c[nH]c2c(=O)[nH]c3ccc(S(=O)(=O)N4CCCC4)cc3c12` [Compound 162, 4-Oxo-8-(pyrrolidine-1-sulfonyl)-4,5-dihydro-3H-pyrrolo[2,3-c]quinoline-1-ethyl carboxylate], the IC50 at RET was 0.1 to 1 µM; against TrkA it was 1 to 10 µM; against TrkB it was 1 to 10 µM.
As to `CCOC(=O)c1c[nH]c2c(=O)[nH]c3ccc(S(=O)(=O)O)cc3c12` [Compound 227, 4-Oxo-8-sulfo-4,5-dihydro-3H-pyrrolo[2,3-c]quinoline-1-ethyl carboxylate], the IC50 on RET, at PIM-1, against TrkA and at TrkB was 1 to 10 µM each time.
In the case of `CCOC(=O)c1c[nH]c2c(=O)[nH]c3ccc(-c4cccc(N)c4)cc3c12` [Compound 234, Trifluoroacetate of 8-(3-aminophenyl)-4-oxo-4,5-dihydro-3H-pyrrolo[2,3-c]quinoline-1-ethyl carboxylate], the IC50 on RET fell in the range of 0.1 to 1 µM; against TrkA it was 1 to 10 µM; at TrkB, 1 to 10 µM.
As to `CCOC(=O)c1c[nH]c2c(=O)[nH]c3ccc(-c4cccc(O)c4)cc3c12` [Compound 237, 8-(3-Hydroxy-phenyl)-4-oxo-4,5-dihydro-3H-pyrrolo[2,3-c]quinoline-1-ethyl carboxylate], the IC50 was 0.1 to 1 µM at RET, 1 to 10 µM against PIM-1, 1 to 10 µM against TrkA and 0.1 to 1 µM against TrkB.
For `CCOC(=O)c1c[nH]c2c(=O)[nH]c3ccc(-c4ccnc(Nc5ccccc5)n4)cc3c12` [Compound 266, 4-Oxo-8-(2-phenylamino-pyrimidin-4-yl)-4,5-dihydro-3H-pyrrolo[2,3-c]quinoline-1-ethyl carboxylate], the IC50 on RET, on TrkA and against TrkB was 1 to 10 µM each time.
On to `CCOC(=O)c1c[nH]c2c(=O)[nH]c3ccc(-c4ccnc(Nc5nc6ccccc6[nH]5)n4)cc3c12` [Compound 267, 8-[2-(1H-Benzoimidazol-2-ylamino)-pyrimidin-4-yl]-4-oxo-4,5-dihydro-3H-pyrrolo[2,3-c]quinoline-1-ethyl carboxylate], for which the IC50 at RET was in the range of 1 to 10 µM; against TrkA, 10 to 100 µM; against TrkB it was 10 to 100 µM.
